Measured values as given in US20240423946A1, “COMPOUND FOR TREATING NON-ALCOHOLIC FATTY LIVER DISEASE AND RELATED DISEASES” (Algiax Pharmaceuticals GmbH, priority 2021, published 2024).

Key:
Assay type in all cases: cell-based
[1] = system: primary human hepatocytes; assay: Palmitate-induced apoptosis, caspase 3/7 activity in human primary hepatocytes; conditions: 24 h
Excerpt: Human primary hepatocytes were purchased from Thermo Fisher and cultured according to the manufacturer's instructions. […] To achieve finale palmitate concentrations, sodium palmitate was complexed with a preheated BSA (Carl Roth, Karlsruhe, Germany) solution at a 2.6:1 molar ratio.

HepG2 cells = assay: Palmitate-induced apoptosis, Caspase-Glo 3/7 activity in HepG2 cells; conditions: 24 h
Procedure: NAFLD is characterized by excessive hepatic fat accumulation which leads to cell death, including apoptosis, of liver cells in the progression of the disease. HepG2s (liver cell line) were seeded in a 96-well plate and cultured for 48 h before inducing cell death/apoptosis with 100 μM, 150 μM, 200 μM, 250 μM, 300 μM BSA-coupled palmitic acid (PA). A concentration-response curve to palmitate for apoptosis expressed as percentage of control of Caspase 3/7 (apoptosis marker) activity of HepG2 cells treated for 24 h were determined. As a positive control for apoptosis 2 μM staurosporine was used. Caspase 3/7 activity after 24 h was measured by a Caspase-Glo® 3/7 Assay (Promega) as described in the manufacturer's protocol. Luminescence was recorded after an incubation step of 35 min using the plate-reader luminometer of a Cytation™ 5.
HepG2 cells were treated with palmitate acid (200 μM) in the presence or absence of HK4 (100 nM) and GABA (100 μM), as well as with the vehicle BSA and the positive control for apoptosis staurosporine (STP) (2 μM) for 24 h. As a negative control an apoptosis inhibitor (API) (100 μM) was used. As described in Example I Caspase 3/7 activity after 24 h was measured by a Caspase-Glo® 3/7 Assay (Promega).

NF-κB subunit p65 = assay: Western blot, phospho-NF-κB p65 to NF-κB p65 ratio in HepG2 cells
Procedure: Beside excessive hepatic fat accumulation, inflammation is one of the critical steps in the progression of NAFL to NASH. As an indicator of inflammation, phosphorylation of the transcription factor NF-κB was monitored by a phospho-p65 specific antibody using protein extraction and western blotting.
HepG2 cells were homogenized in lysis buffer including a protease and phosphatase inhibitor cocktail. Cell lysates were centrifuged at 12.000 rpm for 15 min. The protein concentrations were determined using the Pierce BCA protein assay kit (Thermo Fisher Scientific). 20 μg of Proteins were resolved on 4-20% gradient gels (Bio-Rad, Hercules, CA) and transferred onto an Immun-Blot PVDF membrane (Bio-Rad). Membranes were blocked with 5% non-fat dry milk or bovine serum albumin in TBPS containing 0.1% Tween for 1 h at RT, followed by an overnight incubation with the respective primary antibody: Phospho-NF-κB p65 and NF-κB p65 (Cell Signaling Technology, Frankfurt, Germany). Membranes were incubated with the corresponding HRP-coupled secondary antibody. Protein bands were visualized using an ECL Western blot detection substrate (Bio-Rad). The band intensities were quantified with the ChemStudio analysis software (Analytik Jena, Jena, Germany) and normalized by GAPDH band intensity.

Caspase 7 = assay: Human apoptosis array, Caspase 7 protein in lysates of treated HepG2 cells; conditions: HepG2, HK4 100 nM and PA
Procedure: Markers of apoptosis were analysed in the cell lysates of treated HepG2s with a human apoptosis array (RayBiotech, Peachtree Corners, GA) according to manufacturer's protocol. The total protein content was measured using the Pierce BCA protein assay kit (Thermo Fisher Scientific). Membranes were incubated with 250 μg of total protein from untreated and treated HepG2 cells. The spot intensities were quantified after an exposure of 500 ms using the ChemStudio analysis software (Analytik Jena) and normalized to the untreated control after background subtraction with the design spots for it.

**Q.** `CCCCCCCCCCCCCCCC(=O)O` [Palmitate acid, palmitic acid, reference compound] was tested. Which “Caspase 3/7 activity provoked by palmitate 100 μM” value ([1]; palmitate 100 μM alone) did it give?
**A.** The value was 147.3±31.3%.

**Q.** What about the “Caspase 3/7 activity provoked by palmitate 200 μM” value ([1]; palmitate 200 μM alone) of the same compound?
**A.** The value was 155.1±3.78%.

**Q.** What about the “Caspase 3/7 activity provoked by palmitate 200 μM” value (HepG2 cells; HepG2, palmitate 200 μM alone) of the same compound?
**A.** The value was 1130±103.3%.

**Q.** And the “Caspase 3/7 activity (apoptosis), percentage of control” value (HepG2 cells; HepG2, palmitate acid 100 μM alone)?
**A.** The value was 342.2±12.25%.

**Q.** How did the “Caspase 3/7 activity provoked by palmitate 100 μM, HK4 pre-treatment” value ([1]; HK4 (10 μM) 1 h prior to palmitate 100 μM) turn out when `Cc1cc(NC(=S)/C(C#N)=C(\O)C2CC2)ccc1C#N` [HK4, 2-Cyano-N-(4-cyano-3-methyl-phenyl)-3-cyclopropyl-3-hydroxy-thioacrylamide] was run?
**A.** The value was 58.73±16.86%.

**Q.** What about the “Caspase 3/7 activity provoked by palmitate 200 μM, HK4 pre-treatment” value ([1]; HK4 (10 μM) 1 h prior to palmitate 200 μM) of the same compound?
**A.** Its value is 57.13±21.47%.

**Q.** What about the “Caspase 3/7 activity provoked by palmitate 200 μM, with HK4” value (HepG2 cells; HepG2, HK4 100 nM + palmitate 200 μM) of the same compound?
**A.** Its value is 47.32±19.56%.

**Q.** And the “Caspase 3/7 activity compared to untreated control cells” value (HepG2 cells; HepG2, HK4 alone (100 nM))?
**A.** Its value is 21.60±2.52%.

**Q.** And the “Effect on phosphorylation of the NF-κB subunit p65 compared to untreated cells” value (NF-κB subunit p65; HepG2, HK4 alone)?
**A.** The value was “no effect”.

**Q.** What about the “Ratio of phosphorylated NF-κB to non-phosphorylated NF-κB subunit p65, % of PA” value (NF-κB subunit p65; HepG2, pre-incubation with HK4 then palmitate acid, PA = 100%) of the same compound?
**A.** The value was 55.24±10.64%.

**Q.** And the “Caspase 7 protein expression vs. PA alone” value (Caspase 7)?
**A.** The value was 60.91±4.18%.

**Q.** Which “PA-induced apoptosis rate (caspase 3/7 activity), with GABA” value (HepG2 cells; HepG2, GABA 100 μM + palmitate 200 μM) does the source give for `NCCCC(=O)O` [GABA, gamma-Aminobutyric acid] here?
**A.** Its value is 764.9±16.72%.
